Assay results reported in patent US20160176894A1, “TAXANE AND ABEO-TAXANE ANALOGS” (Arbor Therapeutics, LLC, priority 2013, published 2016).
Like-named read-outs stand apart in the source and are kept apart here. Blank lines part the entries; values can stand above or below the compound they belong to.

How the values were obtained:
[1] = tested on: MES-SA uterine sarcoma line; test: MTT-based cytotoxicity assay, MES-SA; assay type: cell-based, human; conditions: sensitive parental line
Excerpt: (§1) These lines included a uterine sarcoma line, MES-SA. (Harker, W. G.; MacKintosh, F. R.; Sikic, B. I., Development and characterization of a human sarcoma cell line, MES-SA, sensitive to multiple drugs. Cancer Res. 1983, 43, 4943-4950), and its doxorubicin-resistant subline, MES-SA/DxS. (Harker, W. G.; Sikic, B. I., Multidrug (pleiotropic) resistance in doxorubicin-selected variants of the human sarcoma cell line MES-SA. Cancer Res. 1985, 45, 4091-4096). […] However, resistance to bleomycin, cisplatin, carmustine, 5-fluorouracil or methotrexate is not observed. MES-SA/Dx5 cells express high levels of ABCB 1 (MDR1) mRNA and its gene product, the P-glycoprotein. MES-SA and MES-SA/Dx5 were purchased from the American Type Culture Collection (ATCC, Manassas, Va.).

[2] = tested on: MES-SA/Dx5 doxorubicin-resistant subline; test: MTT-based cytotoxicity assay, MES-SA/Dx5; assay type: cell-based, human; conditions: for IC50: MTT, multidrug resistant subline (MDR1/P-glycoprotein); for Degree of resistance (MES-SA/Dx5): IC50 of the resistant line divided by IC50 of sensitive MES-SA cells
Excerpt: as §1

CCRF-CEM (CEM) cells = test: MTT-based cytotoxicity assay, CEM; assay type: cell-based, human; conditions: sensitive parental line
Excerpt: as §1
(§2) The second set of cells tested, CCRF-CEM or simply CEM, were derived from the blood of a patient with acute lymphobiastic leukemia. (Foley, G. E.; Lazarus, H.; Farber, S.; Uzman, B. G.; Boone, B. A.; McCarthy, R. E., Continuous Culture of Human Lymphoblasts from Peripheral Blood of a Child with Acute Leukemia. Cancer 1965, 18, 522-529). The subline CEM/VLB100 was developed to be resistant to up to vinblastine at 100 ng/ml. (Beck, W. T.; Mueller, T. J.; Tanzer, L. R., Altered surface membrane glycoproteins in Vinca alkaloid-resistant human leukemic lymphoblasts. Cancer Res. 1979, 39, 2070-2076). Drug resistance is achieved by overexpression of the MDR1 gene. Resistance in the CEM subline designated CEM/VM-1-5, however, is “atypical.” (Danks, M. K.; Yalowich, J. C.; Beck, W. T., Atypical multiple drug resistance in a human leukemic cell line selected for resistance to teniposide (VM-26). Cancer Res. 1987, 47, 1297-1301). The classes of drugs included in the “classic” multiple drug resistance phenotype are Vinca alkaloids, anthracyclines, epipodophyllotoxins and antibiotics. However, CEM/VM-1-5 cells retain sensitivity to the Vinca alkaloids despite resistance and cross-resistance to etoposide, anthracyclines and mitoxantrone. (Danks, M. K.; Schmidt, C. A.; Cirtain, M. C.; Suttle, D. P.; Beck, W. T., Altered catalytic activity of and DNA cleavage by DNA topoisomerase II from human leukemic cells selected for resistance to VM-26. Biochemistry 1988, 27, 8861-8869). Resistance in CEM/VM-1-5 cells is effected by over expression of the ABCC1 (MRP1) gene. CEM, CEM/VLB100 and CEM/VM-1-5 cells were obtained from Dr. WT Beck, University of Illinois at Chicago.

CEM/VLB100 cells = test: MTT-based cytotoxicity assay, CEM/VLB100; assay type: cell-based, human; conditions: for IC50: vinblastine-resistant subline (MDR1); for Degree of resistance (CEM/VLB100): IC50 of the resistant line divided by IC50 of sensitive CEM cells
Procedure: as §2

CEM/VM-1-5 cells = test: MTT-based cytotoxicity assay, CEM/VM-1-5; assay type: cell-based, human; conditions: for IC50: MTT, atypical MDR subline (ABCC1/MRP1); for Degree of resistance (CEM/VM-1-5): IC50 of the resistant line divided by IC50 of sensitive CEM cells
Procedure: as §2

A2780-A5 = test: MTS proliferation assay, A2780-A5; assay type: cell-based; conditions: read-out: MTS-6: 72 hr proliferation IC50, A2780-A5
Procedure: (§3) Day 1: Cells were plated in appropriate growth medium at 5×10^3 per well in 100 μL in 96 well tissue culture plates, Falcon, one plate for each drug to be tested. Column 1 was blank; it contained medium, but no cells. The plates were incubated overnight at 37° C. in 5% CO2 to allow attachment. Day 2: Drug diluted in culture media was added to the cells at a concentration of 0.005 nM to 10 μM in quadruplicate. After 48-72 hours of drug exposure, the MTS agent was added to all wells and incubated 1-6 hrs (37° C., 5% CO2), depending on cell type, as per CellTiter 96® AQueous Non-Radioactive Cell Proliferation Assay (MTS), Promega. Plates were processed using a Bio-Tek Synergy HT Multi-detection microtiter plate reader at 490 nanometer wavelength and data were processed with KC4V.3 software. Data plots of drug concentration vs. absorbance were plotted and IC50 values were extrapolated for each of the tested compounds.

A2680-DXR1 (MDR+) = test: MTS proliferation assay, A2680-DXR1; assay type: cell-based; conditions: 72 hr, read-out: MTS-6: 72 hr proliferation IC50, A2680-DXR1
Procedure: as §3

HCT-15 (MDR+) = test: MTS proliferation assay, HCT-15; assay type: cell-based; conditions: read-out: MTS-6: 72 hr proliferation IC50, HCT-15
Procedure: as §3

MDAH2774 = test: MTS proliferation assay, MDAH2774; assay type: cell-based; conditions: read-out: MTS-6: 72 hr proliferation IC50, MDAH2774
Procedure: as §3

MV522 = test: MTS proliferation assay, MV522; assay type: cell-based; conditions: read-out: MTS-6: 72 hr proliferation IC50, MV522
Procedure: as §3

22Rv1 = test: MTS proliferation assay, 22Rv1; assay type: cell-based; conditions: read-out: MTS-6: 72 hr proliferation IC50, 22Rv1
Procedure: as §3

[3] = tested on: cancer cell lines, both MDR expressing and non-MDR expressing; test: MTS proliferation assay, cell line panel (general statements); assay type: cell-based
Procedure: as §3

tubulin = tubulin protein assembly assay; assay type: biochemical; conditions: for ED50/ED50 (Paclitaxel): ratio to paclitaxel; for EC50: tubulin assembly, read-out: ED50 (the source's name)
KB = test: MTS proliferation assay, KB; assay type: cell-based; conditions: Homo sapiens, MDR negative, extrapolated outside tested range
Procedure: as §3

SKNAS = test: MTS proliferation assay, SKNAS; assay type: cell-based; conditions: Homo sapiens, SK-N-AS, MDR negative, extrapolated outside tested range
Procedure: as §3

DU145 = test: MTS proliferation assay, DU145; assay type: cell-based; conditions: Homo sapiens, DU-145, MDR negative, extrapolated outside tested range
Procedure: as §3

MDAMB435s = test: MTS proliferation assay, MDAMB435s; assay type: cell-based; conditions: Homo sapiens, MDA-MB-435S, MDR negative, extrapolated outside tested range
Procedure: as §3

HT29 = test: MTS proliferation assay, HT29; assay type: cell-based; conditions: Homo sapiens, HT-29, MDR negative, extrapolated outside tested range
Procedure: as §3

KBV = test: MTS proliferation assay, KBV; assay type: cell-based; conditions: MDR positive
Procedure: as §3

MESSA/DOX = test: MTS proliferation assay, MESSA/DOX; assay type: cell-based; conditions: Homo sapiens, MDR positive
Procedure: as §3

MV522/Mdr1 = test: MTS proliferation assay, MV522/Mdr1; conditions: read-out: IC50 MV522/Mdr1
Procedure: as §3

Compound: C=CC1OC2CC3OCC3(OC(C)=O)C3C(OC(=O)c4ccccc4)C4(O)CC(OC(=O)C(O)C(CC(C)C)NC(=O)OC(C)(C)C)C(C)=C(C(OC(C)=O)C(O1)C23C)C4(C)C (stereo not drawn) [10-βTX (14b.2), 10-beta taxane acrolein acetal]
IC50 ([1]; Homo sapiens, MES-SA): 28 ± 16 nM
IC50 ([2]; Homo sapiens, MES-SA/Dx5): 36 ± 34 nM
Degree of resistance (MES-SA/Dx5) [2]: 1.2 ± 0.5
IC50 (CCRF-CEM (CEM) cells; Homo sapiens, CCRF-CEM): 7.5 ± 0.7 nM
IC50 (CEM/VLB100 cells; Homo sapiens, CEM/VLB100, MTT): 22 ± 11 nM
Degree of resistance (CEM/VLB100) (CEM/VLB100 cells): 3 ± 1
IC50 (CEM/VM-1-5 cells; Homo sapiens): 9 ± 1 nM
Degree of resistance (CEM/VM-1-5) (CEM/VM-1-5 cells): 1.2 ± 0.3

Compound: CC[C@]1(O)C[C@@H]2CN(CCc3c([nH]c4ccccc34)[C@@](C(=O)OC)(c3cc4c(cc3OC)N(C)[C@H]3[C@@](O)(C(=O)OC)[C@H](OC(C)=O)[C@]5(CC)C=CCN6CC[C@]43[C@@H]65)C2)C1 [Vinblastine]
IC50 ([2]; Homo sapiens, MES-SA/Dx5): 43 ± 12 nM
Degree of resistance (MES-SA/Dx5) [2]: 38.5 ± 0.7
IC50 (CCRF-CEM (CEM) cells; Homo sapiens, CCRF-CEM): 1 ± 0.8 nM
IC50 (CEM/VLB100 cells; Homo sapiens, CEM/VLB100, MTT): 227 ± 77 nM
Degree of resistance (CEM/VLB100) (CEM/VLB100 cells): 255 ± 127
IC50 (CEM/VM-1-5 cells; Homo sapiens): 1.3 ± 0.9 nM
Degree of resistance (CEM/VM-1-5) (CEM/VM-1-5 cells): 1.2 ± 0.07

Compound: C=CC1OC2CC3OCC3(OC(C)=O)C3C(OC(=O)c4ccccc4)C4(O)CC(OC(=O)C(O)C(CC(C)C)NC(=O)OC(C)(C)C)C(C)=C(C(OC(C)=O)C(O1)C23C)C4(C)C (mixture of isomers) [10-αTX (14a.2)]
IC50 [1]: 30 ± 14 nM
Degree of resistance (MES-SA/Dx5) [2]: 1.1 ± 0.3
IC50 [2]: 34 ± 24 nM
IC50 (CCRF-CEM (CEM) cells): 14 ± 5 nM
Degree of resistance (CEM/VLB100) (CEM/VLB100 cells): 3 ± 0.6
IC50 (CEM/VLB100 cells; MTT): 43 ± 23 nM

Compound: C=CC1OC2CC3OCC3(OC(C)=O)C3C(OC(=O)c4ccccc4)C4(C(C)(C)O)CC(OC(=O)C(O)C(CC(C)C)NC(=O)OC(C)(C)C)C(C)=C4C(OC(C)=O)C(O1)C23C (stereo not drawn) [10-αAT (15a.2)]
IC50 [1]: 9.5 ± 0.7 nM
Degree of resistance (MES-SA/Dx5) [2]: 1.6 ± 0.8
IC50 [2]: 15 ± 8 nM
IC50 (CCRF-CEM (CEM) cells): 5 ± 3 nM
Degree of resistance (CEM/VLB100) (CEM/VLB100 cells): 4 ± 0
IC50 (CEM/VLB100 cells; MTT): 19 ± 9 nM
Degree of resistance (CEM/VM-1-5) (CEM/VM-1-5 cells): 1.3 ± 1.4
IC50 (CEM/VM-1-5 cells): 5 ± 4 nM
IC50 (A2780-A5; 72 hr): 0.282 nM
IC50 (A2680-DXR1 (MDR+)): 15 nM
IC50 (HCT-15 (MDR+); 72 hr): 2.4 nM
IC50 (MDAH2774; 72 hr): 0.18 nM
IC50 (MV522; 72 hr): 3.5 nM
IC50 (22Rv1; 72 hr): 5.7 nM
IC50 [3]: < 1000 nM
affinity for tubulin (in words) (tubulin; compared to several recognized tubulin binding agents): surprisingly great affinity for tubulin
ED50/ED50 (Paclitaxel) (tubulin): 0.53
EC50 (tubulin): 1580 ± 460 nM

Compound: Doxorubicin
IC50 [1]: 2 nM
Degree of resistance (MES-SA/Dx5) [2]: 49
IC50 [2]: 97 nM
IC50 (CCRF-CEM (CEM) cells): 14 nM
Degree of resistance (CEM/VLB100) (CEM/VLB100 cells): 150
IC50 (CEM/VLB100 cells; MTT): 2100 nM
Degree of resistance (CEM/VM-1-5) (CEM/VM-1-5 cells): 219
IC50 (CEM/VM-1-5 cells): 3060 nM

Compound: C=C[C@H]1O[C@H]2C[C@H]3OC[C@@]3(OC(C)=O)[C@H]3[C@H](OC(=O)c4ccccc4)[C@]4(C(C)(C)O)C[C@H](OC(=O)[C@H](O)[C@H](CC(C)C)NC(=O)OC(C)(C)C)C(C)=C4[C@@H](OC(C)=O)[C@H](O1)[C@]23C [10-βAT (15b.2)]
IC50 [1]: 432 ± 261 nM
Degree of resistance (MES-SA/Dx5) [2]: 0.75 ± 0.07
IC50 [2]: 328 ± 173 nM
IC50 (CCRF-CEM (CEM) cells): 112 ± 60 nM
Degree of resistance (CEM/VLB100) (CEM/VLB100 cells): 4 ± 0.3
IC50 (CEM/VLB100 cells; MTT): 453 ± 293 nM
Degree of resistance (CEM/VM-1-5) (CEM/VM-1-5 cells): 0.9 ± 0.5
IC50 (CEM/VM-1-5 cells): 77 ± 6 nM

Compound: CC(=O)O[C@H]1C(=O)[C@@]2(C)[C@H]([C@H](OC(=O)c3ccccc3)[C@]3(O)C[C@H](OC(=O)[C@H](O)[C@@H](NC(=O)c4ccccc4)c4ccccc4)C(C)=C1C3(C)C)[C@]1(OC(C)=O)CO[C@@H]1C[C@@H]2O [Paclitaxel]
IC50 ([1]; Homo sapiens, MES-SA): 9 ± 7 nM
IC50 ([2]; Homo sapiens, MES-SA/Dx5): 19400 ± 204 nM
Degree of resistance (MES-SA/Dx5) [2]: 3105 ± 2416
IC50 (CEM/VLB100 cells; MTT): 3030 nM
IC50 (CEM/VM-1-5 cells; Homo sapiens): < 11 nM
Degree of resistance (CEM/VM-1-5) (CEM/VM-1-5 cells): 4
IC50 (CEM/VM-1-5 cells): 8 nM
IC50 (A2780-A5; 72 h): < 0.002 nM
IC50 (A2680-DXR1 (MDR+)): 3580 nM
IC50 (HCT-15 (MDR+); Homo sapiens, HCT-15, 72 hr): 311 nM
IC50 (MDAH2774; Homo sapiens, MDAH 2774, 72 h): 0.015 nM
IC50 (MV522; MV522, 72 h): 1.71 nM
IC50 (22Rv1; Homo sapiens, 22Rv1, 72 h): 1.7 nM
IC50 (KB): < 0.002 nM
IC50 (SKNAS): < 0.002 nM
IC50 (DU145): < 0.002 nM
IC50 (MDAMB435s): < 0.002 nM
IC50 (HT29): < 0.002 nM
IC50 (KBV): ≥ 500 nM
IC50 (MESSA/DOX): ≥ 500 nM
IC50 (MV522/Mdr1): ≥ 500 nM

EC50 (tubulin): 3180 ± 450 nM
Compound: CC(=O)O[C@@]12CO[C@@H]1C[C@H](O)[C@@]1(C)C(=O)[C@H](O)C3=C(C)[C@@H](OC(=O)[C@H](O)[C@@H](NC(=O)OC(C)(C)C)c4ccccc4)C[C@@](O)([C@@H](OC(=O)c4ccccc4)[C@H]21)C3(C)C [Docetaxel]
ED50/ED50 (Paclitaxel) (tubulin): 1.07
